From patent US11542266B1, “Substituted piperidines as BTK inhibitors” (HAISCO PHARMACEUTICALS PTE. LTD., priority 2019, dated 2023)
Counter-ions that a name gives are not always drawn.

test system: Mino cells; test: Inhibition of cell proliferation, Mino cells (Cell Viability Assay, 72 h); assay type: cell-based, human; details: not given
Description: SU-DHL-4, Mino, and SU-DHL-6 cells, in the culture medium of RPMI1640+10% FBS, were cultured in an incubator at 37° C. under 5% CO2. Cells were plated in a 96-well plate. Specifically, SU-DHL-4 cells were at 20000/well, Mino and SU-DHL-6 cells were at 5000/well, with 90 μL/well. 10 μL of the compounds at different concentrations were added to each well. There were 3 replicate wells for each concentration, and the last column, added with DMSO, was used as a vehicle control group. The cultures were continued for 72 hours at 37° C. under 5% CO2. After 72 hours, 100 μL of detection reagent (Cell Viability Assay, Promega, G7573) was added to each well, and the cultures were uniformly mixed for 2 minutes, and incubated at room temperature for 10 minutes. The fluorescence signal value was measured with a microplate reader (PHERAstar FSX). The IC50 value of the compound on cell proliferation inhibition was calculated using Origin 9.2 software, and the inhibition rate at the highest concentration of the compound (Max inhi. %) was calculated according to formula (1). Max inhi. %=(1-T72 administration/T72 vehicle)×100 Formula (1).

| Structure (SMILES) | IC50 |
| --- | --- |
| Nc1ncnc2c1c(-c1ccc(Oc3ccccc3)cc1)nn2C1CCN(C2CCN(C3CN(c4ccc5c(c4)C(=O)N(C4CCC(=O)NC4=O)C5=O)C3)CC2F)CC1 (stereo not drawn) [Compound 46-1, trans-5-(3-(4-(4-amino-3-(4-phenoxyphenyl)-1H-pyrazolo[3,4-d]pyrimidin-1-yl)-3′-fluoro-[1,4′-bipiperidin]-1′-yl)azetidin-1-yl)-2-(2,6-dioxopiperidin-3-yl)isoindoline-1,3-dione-P1] | 27 nM |
| Nc1ncnc2c1c(-c1ccc(Oc3ccccc3)cc1)nn2C1CCN(C2CCN(C3CN(c4ccc5c(c4)C(=O)N(C4CCC(=O)NC4=O)C5=O)C3)CC2F)CC1 (stereo not drawn) [Compound 49-1, cis-5-(3-(4-(4-amino-3-(4-phenoxyphenyl)-1H-pyrazolo[3,4-d]pyrimidin-1-yl)-3′-fluoro-[1,4′-bipiperidin]-1′-yl)azetidin-1-yl)-2-(2,6-dioxopiperidin-3-yl)isoindoline-1,3-dione-P1] | 113 nM |

same assay, conditions: Homo sapiens

| Structure (SMILES) | IC50 |
| --- | --- |
| Nc1ncnc2c1c(-c1ccc(Oc3ccccc3)cc1)nn2C1CCN(C2CN(C3CCN(c4ccc5c(c4)C(=O)N(C4CCC(=O)NC4=O)C5=O)CC3)C2)CC1 (stereo not shown) [Compound 23, 5-[4-[3-[4-[4-amino-3-(4-phenoxyphenyl)pyrazolo[3,4-d]pyrimidin-1-yl]-1-piperidyl]azetidin-1-yl]-1-piperidyl]-2-(2,6-dioxo-3-piperidyl)isoindoline-1,3-dione] | 295 nM |
| Nc1ncnc2c1c(-c1ccc(Oc3ccccc3)cc1)nn2C1CCN(C2CCN(C3CN(c4ccc5c(c4)C(=O)N(C4CCC(=O)NC4=O)C5=O)C3)C2)CC1 (stereo not shown) [Compound 24, 5-[3-[3-[4-[4-amino-3-(4-phenoxyphenyl)pyrazolo[3,4-d]pyrimidin-1-yl]-1-piperidyl]pyrrolidin-1-yl]azetidin-1-yl]-2-(2,6-dioxo-3-piperidyl)isoindoline-1,3-dione] | 629 nM |
| Nc1ncnc2c1c(-c1ccc(Oc3ccccc3)cc1)nn2C1CCN(C2CCN(C3CN(c4ccc5c(c4)CN(C4CCC(=O)NC4=O)C5=O)C3)CC2)CC1 (stereo not shown) [Compound 25, 3-[5-[3-[4-[4-[4-amino-3-(4-phenoxyphenyl)pyrazolo[3,4-d]pyrimidin-1-yl]-1-piperidyl]-1-piperidyl]azetidin-1-yl]-1-oxo-isoindolin-2-yl]piperidine-2,6-dione] | 282 nM |
| Nc1ncnc2c1c(-c1ccc(Oc3ccccc3)cc1)nn2C1CCN(C2CN(C3CN(c4cccc5c4C(=O)N(C4CCC(=O)NC4=O)C5=O)C3)C2)CC1 (stereo not shown) [Compound 27, 4-[3-[3-[4-[4-amino-3-(4-phenoxyphenyl)pyrazolo[3,4-d]pyrimidin-1-yl]-1-piperidyl]azetidin-1-yl]azetidin-1-yl]-2-(2,6-dioxo-3-piperidyl)isoindoline-1,3-dione] | 503 nM |
| Nc1ncnc2c1c(-c1ccc(Oc3ccccc3)cc1)nn2C1CCN(C2CC3(CCN(C4CN(c5ccc6c(c5)C(=O)N(C5CCC(=O)NC5=O)C6=O)C4)CC3)C2)CC1 (stereo not shown) [Compound 50, 5-(3-(2-(4-(4-amino-3-(4-phenoxyphenyl)-1H-pyrazolo[3,4-d]pyrimidin-1-yl)piperidin-1-yl)-7-azaspiro[3.5]nonan-7-yl)azetidin-1-yl)-2-(2,6-dioxopiperidin-3-yl)isoindoline-1,3-dione] | 112 nM |
| Nc1ncnc2c1c(-c1ccc(Oc3ccccc3)cc1)nn2C1CCN(C2CN(C3CCC4(CC3)CN(c3ccc5c(c3)C(=O)N(C3CCC(=O)NC3=O)C5=O)C4)C2)CC1 (stereo not shown) [Compound 54, 5-(7-(3-(4-(4-amino-3-(4-phenoxyphenyl)-1H-pyrazolo[3,4-d]pyrimidin-1-yl)piperidin-1-yl)azetidin-1-yl)-2-azaspiro[3.5]nonan-2-yl)-2-(2,6-dioxopiperidin-3-yl)isoindoline-1,3-dione] | 200 nM |

same assay, conditions: inhibition rate at the highest concentration of the compound

| Structure (SMILES) | Mino Max inhi. % |
| --- | --- |
| Nc1ncnc2c1c(-c1ccc(Oc3ccccc3)cc1)nn2C1CCN(C2CN(C3CCN(C4CCN(c5ccc6c(c5)C(=O)N(C5CCC(=O)NC5=O)C6=O)CC4)CC3)C2)CC1 (stereo not shown) [Compound 15, 5-[4-[4-[3-[4-[4-amino-3-(4-phenoxyphenyl)pyrazolo[3,4-d]pyrimidin-1-yl]-1-piperidyl]azetidin-1-yl]-1-piperidyl]-1-piperidyl]-2-(2,6-dioxo-3-piperidyl)isoindoline-1,3-dione] | 99.8% |
| Nc1ncnc2c1c(-c1ccc(Oc3ccccc3)cc1)nn2C1CCN(C2CCN(C3CN(C4CCN(c5ccc6c(c5)C(=O)N(C5CCC(=O)NC5=O)C6=O)CC4)C3)C2)CC1 (stereo not shown) [Compound 16, 5-[4-[3-[3-[4-[4-amino-3-(4-phenoxyphenyl)pyrazolo[3,4-d]pyrimidin-1-yl]-1-piperidyl]pyrrolidin-1-yl]azetidin-1-yl]-1-piperidyl]-2-(2,6-dioxo-3-piperidyl)isoindoline-1,3-dione] | 99.7% |
| Nc1ncnc2c1c(-c1ccc(Oc3ccccc3)cc1)nn2C1CCN(C2CN(C3CN(c4ccc5c(c4)CN(C4CCC(=O)NC4=O)C5=O)C3)C2)CC1 (stereo not shown) [Compound 26, 3-[5-[3-[3-[4-[4-amino-3-(4-phenoxyphenyl)pyrazolo[3,4-d]pyrimidin-1-yl]-1-piperidyl]azetidin-1-yl]azetidin-1-yl]-1-oxo-isoindolin-2-yl]piperidine-2,6-dione] | 74.3% |
| Nc1ncnc2c1c(-c1ccc(Oc3ccccc3)cc1)nn2C1CCN(C2CN(C3CN(c4ccc5c(c4)C(=O)N(C4CCC(=O)NC4=O)C5=O)C3)C2)C1 (stereo not shown) [Compound 29, 5-(3-(3-(4-amino-3-(4-phenoxyphenyl)-1H-pyrazolo[3,4-d]pyrimidin-1-yl)pyrrolidin-1-yl)-[1,3′-biazetidin]-1′-yl)-2-(2,6-dioxopiperidin-3-yl)isoindoline-1,3-dione trifluoroacetate] | 71.2% |
| NC(=O)c1c(-c2ccc(Oc3ccccc3)cc2)nn2c1NCC[C@H]2C1CCN(C2CCN(C3CN(c4ccc5c(c4)C(=O)N(C4CCC(=O)NC4=O)C5=O)C3)CC2)CC1 (stereo partly drawn) [Compound 30, (7S)-7-[1-[1-[1-[2-(2,6-dioxo-3-piperidyl)-1,3-dioxo-isoindolin-5-yl]azetidin-3-yl]-4-piperidyl]-4-piperidyl]-2-(4-phenoxyphenyl)-4,5,6,7-tetrahydropyrazolo[1,5-a]pyrimidine-3-carboxamide trifluoroacetate] | 82.5% |
| NC(=O)c1c(-c2ccc(Oc3ccccc3)cc2)nn2c1NCC[C@H]2C1CCN(C2CN(C3CN(c4ccc5c(c4)C(=O)N(C4CCC(=O)NC4=O)C5=O)C3)C2)CC1 (stereo partly drawn) [Compound 31, (7S)-7-[1-[1-[1-[2-(2,6-dioxo-3-piperidyl)-1,3-dioxo-isoindolin-5-yl]azetidin-3-yl]azetidin-3-yl]-4-piperidyl]-2-(4-phenoxyphenyl)-4,5,6,7-tetrahydropyrazolo[1,5-a]pyrimidine-3-carboxamide trifluoroacetate] | 78.3% |
| NC(=O)c1c(-c2ccc(Oc3ccccc3)cc2)nn2c1NCC[C@H]2C1CCN(C2CCN(c3ccc4c(c3)C(=O)N(C3CCC(=O)NC3=O)C4=O)CC2)CC1 (stereo partly drawn) [Compound 48, (7S)-7-(1′-(2-(2,6-dioxopiperidin-3-yl)-1,3-dioxo-isoindolin-5-yl)-[1,4′-bipiperidin]-4-yl)-2-(4-phenoxyphenyl)-4,5,6,7-tetrahydropyrazolo[1,5-a]pyrimidine-3-carboxamide] | 95.7% |
| Nc1ncnc2c1c(-c1ccc(Oc3ccccc3)cc1)nn2C1CCN(C2CC3(CCN(C4CC5(CCN(c6ccc7c(c6)C(=O)N(C6CCC(=O)NC6=O)C7=O)CC5)C4)CC3)C2)CC1 (stereo not shown) [Compound 51, 5-(2′-(4-(4-amino-3-(4-phenoxyphenyl)-1H-pyrazolo[3,4-d]pyrimidin-1-yl)piperidin-1-yl)-7,7′-diaza[2,7′-bispiro[3.5]nonan]-7-yl)-2-(2,6-dioxopiperidin-3-yl)isoindoline-1,3-dione] | 99.7% |
| Nc1ncnc2c1c(-c1ccc(Oc3ccccc3)cc1)nn2C1CCN(C2C[C@@H]3CN(C4CC5(CCN(c6ccc7c(c6)C(=O)N(C6CCC(=O)NC6=O)C7=O)CC5)C4)C[C@@H]3C2)CC1 (stereo partly drawn) [Compound 52, 5-(2-((3aR,6aS)-5-(4-(4-amino-3-(4-phenoxyphenyl)-1H-pyrazolo[3,4-d]pyrimidin-1-yl)piperidin-1-yl)hexahydrocyclopenta[c]pyrrol-2(1H)-yl)-7-azaspiro[3.5]nonan-7-yl)-2-(2,6-dioxopiperidin-3-yl)isoindoline-1,3-dione] | 99.7% |
| Nc1ncnc2c1c(-c1ccc(Oc3ccccc3)cc1)nn2C1CCN(C2C[C@@H]3CN(C4C[C@@H]5CN(c6ccc7c(c6)C(=O)N(C6CCC(=O)NC6=O)C7=O)C[C@@H]5C4)C[C@@H]3C2)CC1 (stereo partly drawn) [Compound 53, 5-((3aR,3′aR,6aS,6′aS)-5-(4-(4-amino-3-(4-phenoxyphenyl)-1H-pyrazolo[3,4-d]pyrimidin-1-yl)piperidin-1-yl)dodecahydro-1H-[2,5′-bi(cyclopenta[c]pyrrol)]-2′(1′H)-yl)-2-(2,6-dioxopiperidin-3-yl)isoindoline-1,3-dione trifluoroacetate] | 99.6% |
| Nc1ncnc2c1c(-c1ccc(Oc3ccccc3)cc1)nn2C1CCN(C2CCC3(CC2)CN(C2CCC4(CC2)CN(c2ccc5c(c2)C(=O)N(C2CCC(=O)NC2=O)C5=O)C4)C3)CC1 (stereo not shown) [Compound 55, 5-(7-(4-(4-amino-3-(4-phenoxyphenyl)-1H-pyrazolo[3,4-d]pyrimidin-1-yl)piperidin-1-yl)-2,2′-diaza[2,7′-bispiro[3.5]nonan]-2′-yl)-2-(2,6-dioxopiperidin-3-yl)isoindoline-1,3-dione] | 99.9% |
